Test results as given in US20080220416A1, “Compositions for Inhibiting Cell Growth and Inducing Apoptosis in Cancer Cells and Methods of Use Thereof” (THE BOARD OF TRUSTEES OF THE UNIVERSITY OF ILLINOI, priority 2004, published 2008).
Square brackets hold non-standard residues; d marks the D form. Peptide text beside a SMILES is read from it. * marks the point of attachment. Nle = CCCC[C@H](N)C(=O)O; Cbz = O=C(OCc1ccccc1)*

Columns and labels:
Type in all cases: cell-based, human
RJ002L melanoma cells = experiment: Bortezomib in RJ002L melanoma cells: sub-G0 DNA content by FACS and kinetic analysis
Procedure: To assess the effect of proteasome inhibitors on the cell lines, the cells were grown in suitable culture media as described above. Highly proliferating cells (i.e., cells that had reached approximately 30% confluency) were exposed to the inhibitors as described below. The culture media was replenished with media containing proteasome inhibitors at various concentrations and the cells were incubated for 24 hours prior to harvesting the cells for further analysis.
Following treatment with the proteasome inhibitors, the melanoma and melanocyte cell cultures were assayed for apoptotic cells using the APO TARGET Annexin V FITC staining kit (Biosource, Camarillo, Calif.) according to the manufacturer's instructions followed by flow cytometric analysis using FACScaliber (Becton Dickinson, Palo Alto, Calif.) as described in Qin, J. et al., 2001, Nat Med 7: 385-386. In some cases, cell cycle and apoptosis analysis was measured using propidium iodide staining and flow cytometry as described. Cells with DNA content less than the G0 amount of untreated cells were considered apoptotic. For cell analysis, DNA histograms were analyzed using MultiCycle for Windows (Phoenix Flow Systems, San Diego, Calif.) as described in Denning, M. F. et al., 1998, J Biol Chem 273: 29995-30002.
The ability of bortezomib to induce apoptosis in RJ002L cells was assayed by kinetic analysis. RJ002L cells were incubated with 1.0 μM bortezomib for 24 hours. At various time points during the 24 hours, the cells were assayed for apoptosis using APO TARGET Annexin V-FITC staining kits (Biosource, Camerillo, Calif.) according to manufacturer's instructions. The relative percentage of cells undergoing apoptosis was quantified by flow cytometric analysis using FACSCaliber (Becton Dickinson, Palo Alto, Calif.) as described in Qin J et al., 2004, Mol Cancer Ther 3:895-902.

[1] = system: T47D:C42 breast cancer cells; experiment: z-Leu-Leu-Nle-CHO plus Paclitaxel, growth inhibition of T47D:C42 cells; conditions: 0-0.8 μM with Paclitaxel, 48 h
Procedure: (§1) Three different types of breast cancer cells were contacted with varying concentrations of z-Leu-Leu-Nle-CHO (0-0.8 μM) and the mitotic poison Paclitaxel (0.01-1 μM). MDA-MB231 cells were obtained from ATCC (Rockville, Md.). T47D:C42 and T47D:A18 cells were a kind gift of Debra Tonetti (University of Illinois-Chicago). MDA-MB231 cells were cultured in DMEM medium with 10% FBS. T47D:C42 and T47D:A18 cells were propagated in RPMI 1640 with 10% FBS, 100 μM non-essential amino acid and 6 ng/ml insulin. Gamma-secretase inhibitor z-Leu-Leu-Nle-CHO (Calbiochem 565750) was dissolved in DMSO, aliquoted and stored at −80° C. Paclitaxel (Sigma, St. Louis Mo.) was dissolved in DMSO, aliquoted and stored at −80° C.
(§2) To determine whether z-Leu-Leu-Nle-CHO treatment potentiates the effect of Paclitaxel on human breast cancer cells, MDA-MB231, T47D:C42 and T47D:A18 cells were treated for 48 h with 0-0.8 μM z-Leu-Leu-Nle-CHO and various concentrations of Paclitaxel (0.008-1 μM) Following the z-Leu-Leu-Nle-CHO and Paclitaxel treatment, the cells were tested for growth inhibition as described above in Example 13.

Notch-1 = Notch-1 cleavage in CaSki cells (Western blot N^TM, N^IC); conditions: 0-5 μM, 24 h
Procedure: The CaSki human cervical cancer cells were incubated for 24 h with various concentrations (0-5 μM) of the dual inhibitor z-Leu-Leu-Nle-CHO (Calbiochem) (FIG. 13A). The cells were then collected and assayed for Notch-1 and Notch-4 expression by Western blotting. Immunoblotting was performed using antibodies to the transmembrane portion of Notch-1 (N^TM) (Santa Cruz Biotechnology (Santa Cruz, Calif.)), or the intracellular portion of Notch-1 (N^IC) (Abcam, Inc. (Cambridge, Mass.)). Secondary anti-goat, anti-rnouse, anti-rabbit and anti-rat antibodies (IgG-HRP) were purchased from Vector Laboratories (Burlingame, Calif.), Santa Cruz Biotechnology and Amersham Biosciences. For Western blot analysis, equal amounts of protein extracted from each sample (20 μg) were loaded into pre-cast 7% NuPAGE Tris-acetate gels or 4-12% NuPAGE Bis-tris gels (Invitrogen). Proteins were separated by SDS-PAGE and transferred to polyvinylidene difluoride membranes (Bio-Rad, Hercules, Calif.) using Invitrogen's buffering system. The membranes were incubated with the indicated primary antibodies, washed, and visualized by incubation with horseradish peroxidase-conjugated secondary antibodies and chemiluminescent reagents (Roche Diagnostics Corporation, Indianapolis, Ind.).

[2] = system: T47D:A18 breast cancer cells; experiment: z-Leu-Leu-Nle-CHO plus Paclitaxel, growth inhibition of T47D:A18 cells; conditions: 0-0.8 μM with Paclitaxel, 48 h
Procedure: as §1, §2

[3] = system: MDA-MB231 breast cancer cells; experiment: Extracellular matrix invasion of MDA-MB231 cells (Matrigel Invasion Chambers); conditions: siRNA transfection, 22 hours
Procedure: Cytotoxicity and growth of transfected cells were estimated by a standard assay used for cancer drug screening, through the total amount of TCA-precipitated cell proteins after drug treatment (Likhitwitayawuid, K et al., 1993, J Nat Prod 56:30-38): 200 μl of cell suspension (10^5 cells/ml) were added to each well in a 96-well plate. After incubation at, 37° C., in 5% CO2 (30 minutes to 72 hours depending on the time course chosen), 50 μl 50% trichloroacetic acid was added to each well. After incubation at 4° C. for 1 hour, precipitates were washed with water 4-5 times and air dried overnight. One hundred μl of SRB solution (0.4% sulforhodamine B in 1% acetic acid, filtered before use) was added to each well for 30 minutes. Wells were washed with 1% acetic acid 4-5 times and air dried. Two hundred μl 10 mM Tris base was added to each well. Plates were shaken for 5-10 minutes and OD at 490 nm (OD490) was recorded via ELISA reader. To assay matrix invasion, 300 μl of cell suspension (10^6 cells/mL in serum-free medium) were added to invasion inserts (BioCoat Matrigel Invasion Chambers, Becton Dickinson, Bedford, Mass.) and incubated for 22 hours at 37° C., 5% CO2. Cells were stained with 0.9% crystal violet in 10% ethanol for 20 minutes. Inserts were dipped in water several times and air dried. After removal of the non-invading cells from the interior of the inserts, stained invading cells were lysed in 10% acetic acid and OD595 was determined.
Notch silencing was confirmed by Western blot as described above in Example 15 using commercial goat polyclonal antibodies from Santa Cruz Biotechnology to Notch-1 (C-20, Cat# sc-6014 S). For the Western blot analyses, MDA-MB231 cells were treated with 25 μM IL-X for 48 h or with 0.5, 1 or 2 μM z-Leu-Leu-Nle-CHO for 24 h. Cytotoxicity and matrix invasion assays were performed as described above in Example 15. For the cytotoxicity assays, MDA-MB231 cells were treated with […] IL-X for up to 3 days or with 0-20 μM z-Leu-Leu-Nle-CHO for up to 4 days. […]

With `CC(C)C[C@H](NC(=O)[C@H](Cc1ccccc1)NC(=O)c1cnccn1)B(O)O` [bortezomib, N-(2-pyrazine)carbonyl-L-phenylalanine-L-leucine boronic acid] the “cells with sub-G0 DNA content by FACS analysis” value (RJ002L melanoma cells; 0.01 μM, 24 hours) was 2%, the apoptotic cells (RJ002L melanoma cells; 0.1 μM, 24 hours) was 20% and the apoptotic cells (RJ002L melanoma cells; 1 μM or 10 μM, 24 hours) was 29-30%. The “kinetic analysis of apoptosis” value (RJ002L melanoma cells; 1.0 μM, up to 24 hours) was “prominent apoptosis was detected at 18- and 24-hr time points” and the “increase in apoptotic cells, 0.1 μM versus 0.01 μM” value (RJ002L melanoma cells; 24 hours) was 10 fold.
With `CCCC[C@@H](C=O)NC(=O)[C@H](CC(C)C)NC(=O)[C@H](CC(C)C)NC(=O)OCc1ccccc1` [z-Leu-Leu-Nle-CHO, N-benzyloxycarbonyl-leucyl-leucyl-norleucinal] (Cbz-Leu-Leu-[Nle]-aldehyde) the “effect on Paclitaxel cell growth inhibition” value [1] was “potentiated the effects of Paclitaxel on cell growth inhibition”, the “cleaved and transmembrane Notch-1” value (Notch-1) was “dose-dependent reduction in cleaved Notch-1” and the “effect on Paclitaxel cell growth inhibition” value [2] was “potentiated the effects of Paclitaxel on cell growth inhibition”.
For “5′-AAGTGTCTGAGGCCAGCAAGA-3′ [Notch-1 siRNA]”, the extracellular matrix invasion [3] was “significantly inhibited extracellular matrix invasion”.
